{"source": "ChEMBL document CHEMBL6182930", "about": "“Discovery of TBK1Molecular Glue Degraders as a Potential Strategy for the Treatment of Autosomal Dominant Polycystic Kidney Disease (ADPKD)” (J Med Chem, 2025)", "key": {"[1]": {"assay": "Tmax in rat at 2 mg/kg, iv measured after 24 hrs by LC-MS/MS analysis", "type": "ADME, organism-based", "conditions": "in vivo"}, "[2]": {"assay": "Cmax in rat at 2 mg/kg, iv measured after 24 hrs by LC-MS/MS analysis", "type": "ADME, organism-based", "conditions": "in vivo"}, "[3]": {"assay": "Clearance in rat at 2 mg/kg, iv measured after 24 hrs by LC-MS/MS analysis", "type": "ADME, organism-based", "conditions": "in vivo"}, "[4]": {"assay": "Half-life in rat at 10 mg/kg, po measured after 24 hrs by LC-MS/MS analysis", "type": "ADME, organism-based", "conditions": "in vivo"}, "[5]": {"assay": "Tmax in rat at 10 mg/kg, po measured after 24 hrs by LC-MS/MS analysis", "type": "ADME, organism-based", "conditions": "in vivo"}, "[6]": {"assay": "Cmax in rat at 10 mg/kg, po measured after 24 hrs by LC-MS/MS analysis", "type": "ADME, organism-based", "conditions": "in vivo"}, "[7]": {"assay": "AUC (0 to infinity) in rat at 10 mg/kg, po measured after 24 hrs by LC-MS/MS analysis", "type": "ADME, organism-based", "conditions": "in vivo"}, "[8]": {"molecular_target": "T1, E3 ubiquitin-protein ligase RNF126/Serine/threonine-protein kinase TBK1 (Homo sapiens, UniProt Q9UHD2+Q9BV68)", "assay": "Molecular glue activity at RNF126/TBK1 in HEK293T cells assessed as induction of TBK1 degradation at 1 uM incubated for 16 hrs by Western blot analysis", "type": "cell-based"}, "[9]": {"molecular_target": "T1, E3 ubiquitin-protein ligase RNF126/Serine/threonine-protein kinase TBK1", "assay": "Molecular glue activity at RNF126/TBK1 in human A549 cells assessed as induction of TBK1 degradation incubated for 16 hrs by Western blot analysis", "type": "cell-based"}, "[10]": {"molecular_target": "T1, E3 ubiquitin-protein ligase RNF126/Serine/threonine-protein kinase TBK1", "assay": "Molecular glue activity at RNF126/TBK1 in human A549 cells assessed as induction of TBK1 degradation by measuring maximal efficacy at 10 to 1000 nM incubated for 16 hrs by Western blot analysis relative to control", "type": "cell-based", "conditions": "dose 10-1000 nM"}, "[11]": {"molecular_target": "T1, E3 ubiquitin-protein ligase RNF126/Serine/threonine-protein kinase TBK1", "assay": "Molecular glue activity at RNF126/TBK1 in HEK293T cells assessed as induction of TBK1 degradation by measuring maximal efficacy at 10 to 1000 nM incubated for 16 hrs by Western blot analysis relative to control", "type": "cell-based", "conditions": "dose 10-1000 nM"}, "[12]": {"molecular_target": "T1, E3 ubiquitin-protein ligase RNF126/Serine/threonine-protein kinase TBK1", "assay": "Molecular glue activity at RNF126/TBK1 in human A549 cells assessed as induction of TBK1 degradation at 1 uM by Western blot analysis", "type": "cell-based", "conditions": "time 2-24 hrs"}, "[13]": {"molecular_target": "T1, E3 ubiquitin-protein ligase RNF126/Serine/threonine-protein kinase TBK1", "assay": "Molecular glue activity at RNF126/TBK1 in HEK293T cells assessed as induction of TBK1 degradation at 1 uM by Western blot analysis", "type": "cell-based", "conditions": "time 2-24 hrs"}, "[14]": {"molecular_target": "T1, E3 ubiquitin-protein ligase RNF126/Serine/threonine-protein kinase TBK1", "assay": "Molecular glue activity at RNF126/TBK1 in human A549 cells assessed as induction of TBK1 degradation at 1 uM pretreated with MLN4924 for 2 hrs followed by compound addition and measured after 16 hrs by Western blot analysis", "type": "cell-based"}, "[15]": {"molecular_target": "T2, Serine/threonine-protein kinase TBK1 (Homo sapiens, UniProt Q9UHD2)", "T2 sequence (Q9UHD2 whole entry)": "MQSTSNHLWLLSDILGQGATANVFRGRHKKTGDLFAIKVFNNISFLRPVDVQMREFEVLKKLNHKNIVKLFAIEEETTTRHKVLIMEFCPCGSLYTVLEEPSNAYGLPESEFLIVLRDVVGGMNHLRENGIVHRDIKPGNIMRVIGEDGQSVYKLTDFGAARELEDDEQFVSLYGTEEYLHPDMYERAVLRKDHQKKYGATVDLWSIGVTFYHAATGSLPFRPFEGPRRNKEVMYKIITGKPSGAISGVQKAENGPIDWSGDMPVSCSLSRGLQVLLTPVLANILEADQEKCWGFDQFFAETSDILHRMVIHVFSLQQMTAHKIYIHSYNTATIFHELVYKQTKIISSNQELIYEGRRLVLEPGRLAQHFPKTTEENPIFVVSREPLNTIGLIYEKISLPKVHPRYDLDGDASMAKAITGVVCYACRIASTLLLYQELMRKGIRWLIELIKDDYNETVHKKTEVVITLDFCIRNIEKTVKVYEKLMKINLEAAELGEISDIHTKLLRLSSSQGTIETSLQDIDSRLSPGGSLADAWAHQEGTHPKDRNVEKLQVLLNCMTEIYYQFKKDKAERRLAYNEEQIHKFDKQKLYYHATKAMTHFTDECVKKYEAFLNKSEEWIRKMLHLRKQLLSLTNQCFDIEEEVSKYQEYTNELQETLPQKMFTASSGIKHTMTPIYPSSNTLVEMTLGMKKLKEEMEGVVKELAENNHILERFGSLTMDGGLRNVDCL", "assay": "Inhibition of TBK1-dependent SEAP reporter gene expression in LPS-stimulated human THP1-Blue ISG cells incubated for 24 hrs by QUANTI-Blue reagent based analysis", "type": "cell-based"}, "MDCK": {"tested_on": "MDCK", "assay": "Inhibition of cystogenesis in forskolin-stimulated MDCK cells assessed as reduction in cyst growth at 100 nM by imaging analysis", "type": "functional, cell-based", "conditions": "Canis lupus familiaris, time 8.0 day"}, "Kidney": {"tested_on": "Kidney", "assay": "Ex vivo inhibition of renal cystogenesis in wild type C57BL/6 mouse kidney assessed as suppression of 8-Br-cAMP-induced cyst development at 100 nM treated for 6 days by imaging analysis", "type": "functional, tissue-based", "conditions": "time 6.0 day"}, "Mus musculus [16]": {"tested_on": "Mus musculus", "assay": "Inhibition of renal cystogenesis in PKD1 knockout ADPKD (Pkd1 flox/flox; Ksp-Cre) C57BL/6 mouse model assessed as reduction in relative kidney size at 5 mg/kg, SC administered from postnatal day 6 and measured on postnatal day 12", "type": "functional, organism-based", "conditions": "time 7.0 day"}, "Mus musculus [17]": {"tested_on": "Mus musculus", "assay": "Inhibition of renal cystogenesis in PKD1 knockout ADPKD (Pkd1 flox/flox; Ksp-Cre) C57BL/6 mouse model assessed as reduction in renal cystic index at 5 mg/kg, SC administered from postnatal day 6 and measured on postnatal day 12 (reference value: 20.0 +/- 1.3 %)", "type": "functional", "parameters": "scale not given: the % may be the effect or the level left", "conditions": "time 7 day"}, "Mus musculus [18]": {"tested_on": "Mus musculus", "assay": "In vivo molecular glue activity at RNF126/TBK1 in PKD1 knockout ADPKD (Pkd1 flox/flox; Ksp-Cre) C57BL/6 mouse model assessed as decrease in TBK1 level in kidney at 5 mg/kg, SC administered from postnatal day 6 and measured on postnatal day 12 by Western blot analysis", "type": "functional, organism-based", "conditions": "time 7.0 day"}, "Mus musculus [19]": {"tested_on": "Mus musculus", "assay": "In vivo inhibition of TBK1-mediated activation of inflammatory pathway in PKD1 knockout ADPKD (Pkd1 flox/flox; Ksp-Cre) C57BL/6 mouse model assessed as decrease in phosphorylated IRF3 level in kidney at 5 mg/kg, SC administered from postnatal day 6 and measured on postnatal day 12 by Western blot analysis", "type": "functional, organism-based", "conditions": "time 7.0 day"}, "Mus musculus [20]": {"tested_on": "Mus musculus", "assay": "In vivo molecular glue activity at RNF126/TBK1 in PKD1 knockout ADPKD (Pkd1 flox/flox; Ksp-Cre) C57BL/6 mouse model assessed as decrease in phosphorylated STING level in kidney at 5 mg/kg, SC administered from postnatal day 6 and measured on postnatal day 12 by Western blot analysis", "type": "functional, organism-based", "conditions": "time 7.0 day"}, "Mus musculus [21]": {"tested_on": "Mus musculus", "assay": "Anti-inflammatory activity in PKD1 knockout ADPKD (Pkd1 flox/flox; Ksp-Cre) C57BL/6 mouse model assessed as decrease in IFN-beta level in kidney at 5 mg/kg, SC administered from postnatal day 6 and measured on postnatal day 12 by RT-qPCR analysis", "type": "functional, organism-based", "conditions": "time 7.0 day"}, "Mus musculus [22]": {"tested_on": "Mus musculus", "assay": "Anti-inflammatory activity in PKD1 knockout ADPKD (Pkd1 flox/flox; Ksp-Cre) C57BL/6 mouse model assessed as decrease in TNF-alpha level in kidney at 5 mg/kg, SC administered from postnatal day 6 and measured on postnatal day 12 by RT-qPCR analysis", "type": "functional, organism-based", "conditions": "time 7.0 day"}}, "note": "Active and inactive are the calls of the source. No cut-off for these calls is given here.", "data": [{"smiles": "COc1ccc(C(=O)/C=C/C(=O)N2CCN(CC3CCN(Cc4cccc(Nc5ncc6ccn(CCCNC(=O)C7CCC7)c6n5)c4)CC3)CC2)cc1", "values": [{"measurement": "Tmax", "setting": "[1]", "value": 4.8, "unit": "min"}, {"measurement": "Cmax", "setting": "[2]", "value": 1790, "unit": "nM"}, {"measurement": "clearance", "setting": "[3]", "value": 44.9, "unit": "mL/min/kg"}, {"measurement": "half-life", "setting": "[4]", "value": 73.2, "unit": "min"}, {"measurement": "Tmax", "setting": "[5]", "value": 21.6, "unit": "min"}, {"measurement": "Cmax", "setting": "[6]", "value": 70, "unit": "nM"}, {"measurement": "AUC(0-inf)", "setting": "[7]", "value": 0.14, "unit": "µM·h"}, {"measurement": "Activity", "setting": "[8]", "value": "Active"}, {"measurement": "Activity", "setting": "[9]", "value": "Dose-dependent-effect"}, {"measurement": "DC50", "setting": "[9]", "value": 360, "unit": "nM"}, {"measurement": "Emax", "setting": "[10]", "value": 71.9, "unit": "%"}, {"measurement": "Emax", "setting": "[11]", "value": 91.9, "unit": "%"}, {"measurement": "Activity", "setting": "[12]", "value": "Time-dependent-effect"}, {"measurement": "Activity", "setting": "[13]", "value": "Time-dependent-effect"}, {"measurement": "Activity", "setting": "[14]", "value": "Active; Degradation In Independent Of Crl-Related Pathway"}, {"measurement": "IC50", "setting": "[15]", "value": 77.4, "unit": "nM"}, {"measurement": "inhibition", "setting": "MDCK", "value": "Time-dependent-effect; Effect Observed Starting On Day 6"}, {"measurement": "inhibition", "setting": "Kidney", "value": "Active"}, {"measurement": "inhibition", "setting": "Mus musculus [16]", "value": "Active"}, {"measurement": "Activity", "setting": "Mus musculus [17]", "value": 14, "unit": "%"}, {"measurement": "Activity", "setting": "Mus musculus [18]", "value": "Active"}, {"measurement": "inhibition", "setting": "Mus musculus [19]", "value": "Active"}, {"measurement": "Activity", "setting": "Mus musculus [20]", "value": "Active"}, {"measurement": "Activity", "setting": "Mus musculus [21]", "value": "Active"}, {"measurement": "Activity", "setting": "Mus musculus [22]", "value": "Active"}]}]}
